Data reported in US20180050078A1, “COMPOSITION FOR IMPROVING OR PREVENTING NONALCOHOLIC FATTY LIVER” (KOHJIN LIFE SCIENCES CO., LTD., priority 2015, published 2018).

Test system: Mice (C57/B6J) fed with high-fat food
From the text: Mice (C57/B6J, 8 weeks old male) were divided into 4 groups (5 animals each), and the first group (DB) was freely fed with ordinary food (CertifiedDiet “MF” manufactured by Oriental Yeast Co., ltd.). The second group (HFD) was freely fed with high-fat food (High Fat Diet 32, manufactured by CLEA Japan, Inc.), […].
When the mouse was 20 weeks old, the body weight, the liver weight, the serum aspartate aminotransferase (AST), the alanine aminotransferase (ALT), the serum triglyceride (TG), the free fatty acid value (FFA) and the total cholesterol value (T-cho) were measured.

[1] = HFD6 (6 mg/kg/day) and HFD60 (60 mg/kg/day) groups in comparison to HFD group, 20 weeks old
[2] = high-fat food mice, glutathione in water 6 or 60 mg/kg/day, 20 weeks old

consumption amounts of feed and water (all of the groups (DB, HFD, HFD6, HFD60)): no significant difference
Compound: N[C@@H](CCC(=O)N[C@@H](CS)C(=O)NCC(=O)O)C(=O)O [glutathione]
FFA (free fatty acid value) [1]: significant decrease
T-cho (total cholesterol value) [1]: significant decrease
TG (triglyceride value) [1]: significant decrease
serum AST, ALT, TG, FFA and T-cho: dose dependence (HFD6 group compared with HFD60 group): decrease dependently on the concentration
deposition of fat on the liver by high-fat food (high-fat food mice, glutathione 6 or 60 mg/kg/day): suppressed
body weight [2]: decrease of the body weight was recognized
liver weight [2]: decreased dependently on the concentration
ratio of liver weight/body weight [2]: decrease of the body weight ratio was also recognized
